Measurements published in the supplement of paper PMC10307832.

Legend:
Experiment in all cases: relative viability (nuclei count vs DMSO), 5 days (fraction); higher = more cells survive
NCI-H23 = test system: NCI-H23
How it was run: (§1)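 Each reported value is a median over duplicate plates. It expresses relative viability: treated-well nuclei count divided by vehicle-well nuclei count. Lung cancer cell lines in 1536-well plates were dosed by pin tool a day after seeding, alone with one drug or with a fixed anchor-drug dose plus five library-drug doses (not always all listed) in √10 steps, and nuclei were counted after 5 days.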

LXF-289 = test system: LXF-289
How it was run: as §1

NCI-H2126 = test system: NCI-H2126
How it was run: as §1

NCI-H1666 = test system: NCI-H1666
How it was run: as §1

NCI-H2342 = test system: NCI-H2342
How it was run: as §1

LCLC-97TM1 = test system: LCLC-97TM1
How it was run: as §1

LU99A = test system: LU99A
How it was run: as §1

NCI-H2170 = test system: NCI-H2170
How it was run: as §1

NCI-H1395 = test system: NCI-H1395
How it was run: as §1

LOU-NH91 = test system: LOU-NH91
How it was run: as §1

SK-LU-1 = test system: SK-LU-1
How it was run: as §1

NCI-H441 = test system: NCI-H441
How it was run: as §1

NCI-H2023 = test system: NCI-H2023
How it was run: as §1

NCI-H1915 = test system: NCI-H1915
How it was run: as §1

BEN = test system: BEN
How it was run: as §1

NCI-H322M = test system: NCI-H322M
How it was run: as §1

NCI-H1793 = test system: NCI-H1793
How it was run: as §1

NCI-H460 = test system: NCI-H460
How it was run: as §1

PC-3 [JPC-3] = test system: PC-3 [JPC-3]
How it was run: as §1

HARA = test system: HARA
How it was run: as §1

A-427 = test system: A-427
How it was run: as §1

COCC1(CO)C(=O)C2CCN1CC2 (stereo not given) [PRIMA-1MET] + O=C(c1cc(Cc2n[nH]c(=O)c3ccccc23)ccc1F)N1CCN(C(=O)C2CC2)CC1 [Olaparib] (partner 8 µM)
relative viability (NCI-H23; first compound 0.2 µM): 0.313 | relative viability (NCI-H23; first compound 0.6325 µM): 0.291 | relative viability (NCI-H23; first compound 2 µM): 0.287 | relative viability (NCI-H23; first compound 6.325 µM): 0.27 | relative viability (NCI-H23; first compound 20 µM): 0.082 | relative viability (LXF-289; first compound 0.2 µM): 1.14 | relative viability (LXF-289; first compound 0.6325 µM): 1.03 | relative viability (LXF-289; first compound 2 µM): 1.06 | relative viability (LXF-289; first compound 6.325 µM): 1.06 | relative viability (LXF-289; first compound 20 µM): 0.999 | relative viability (NCI-H2126; first compound 0.2 µM): 0.908 | relative viability (NCI-H2126; first compound 0.6325 µM): 0.861 | relative viability (NCI-H2126; first compound 2 µM): 0.854 | relative viability (NCI-H2126; first compound 6.325 µM): 0.972 | relative viability (NCI-H2126; first compound 20 µM): 0.831 | relative viability (NCI-H1666; first compound 0.2 µM): 0.773 | relative viability (NCI-H1666; first compound 0.6325 µM): 0.753 | relative viability (NCI-H1666; first compound 2 µM): 0.801 | relative viability (NCI-H1666; first compound 6.325 µM): 0.735 | relative viability (NCI-H1666; first compound 20 µM): 0.739 | relative viability (NCI-H2342; first compound 0.2 µM): 0.414 | relative viability (NCI-H2342; first compound 0.6325 µM): 0.432 | relative viability (NCI-H2342; first compound 6.325 µM): 0.395 | relative viability (NCI-H2342; first compound 20 µM): 0.337 | relative viability (LCLC-97TM1; first compound 0.2 µM): 0.45 | relative viability (LCLC-97TM1; first compound 0.6325 µM): 0.33 | relative viability (LCLC-97TM1; first compound 2 µM): 0.461 | relative viability (LCLC-97TM1; first compound 6.325 µM): 0.347 | relative viability (LCLC-97TM1; first compound 20 µM): 0.236 | relative viability (LU99A; first compound 0.2 µM): 0.312 | relative viability (LU99A; first compound 0.6325 µM): 0.24 | relative viability (LU99A; first compound 2 µM): 0.263 | relative viability (LU99A; first compound 6.325 µM): 0.22 | relative viability (LU99A; first compound 20 µM): 0.0441 | relative viability (NCI-H2170; first compound 0.2 µM): 0.608 | relative viability (NCI-H2170; first compound 0.6325 µM): 0.539 | relative viability (NCI-H2170; first compound 2 µM): 0.649 | relative viability (NCI-H2170; first compound 6.325 µM): 0.684 | relative viability (NCI-H2170; first compound 20 µM): 0.622 | relative viability (NCI-H1395; first compound 0.2 µM): 0.51 | relative viability (NCI-H1395; first compound 2 µM): 0.476 | relative viability (NCI-H1395; first compound 6.325 µM): 0.432 | relative viability (NCI-H1395; first compound 20 µM): 0.426 | relative viability (LOU-NH91; first compound 0.2 µM): 1.02 | relative viability (LOU-NH91; first compound 0.6325 µM): 0.911 | relative viability (LOU-NH91; first compound 2 µM): 0.866 | relative viability (LOU-NH91; first compound 6.325 µM): 0.978 | relative viability (LOU-NH91; first compound 20 µM): 0.65 | relative viability (SK-LU-1; first compound 0.2 µM): 0.504 | relative viability (SK-LU-1; first compound 0.6325 µM): 0.494 | relative viability (SK-LU-1; first compound 2 µM): 0.365 | relative viability (SK-LU-1; first compound 6.325 µM): 0.455 | relative viability (SK-LU-1; first compound 20 µM): 0.237 | relative viability (NCI-H441; first compound 0.2 µM): 0.559 | relative viability (NCI-H441; first compound 0.6325 µM): 0.674 | relative viability (NCI-H441; first compound 2 µM): 0.615 | relative viability (NCI-H441; first compound 6.325 µM): 0.505 | relative viability (NCI-H441; first compound 20 µM): 0.407 | relative viability (NCI-H2023; first compound 0.2 µM): 0.576 | relative viability (NCI-H2023; first compound 0.6325 µM): 0.478 | relative viability (NCI-H2023; first compound 2 µM): 0.489 | relative viability (NCI-H2023; first compound 6.325 µM): 0.442 | relative viability (NCI-H2023; first compound 20 µM): 0.29 | relative viability (NCI-H1915; first compound 0.2 µM): 0.249 | relative viability (NCI-H1915; first compound 0.6325 µM): 0.235 | relative viability (NCI-H1915; first compound 2 µM): 0.239 | relative viability (NCI-H1915; first compound 6.325 µM): 0.256 | relative viability (NCI-H1915; first compound 20 µM): 0.254 | relative viability (BEN; first compound 0.2 µM): 1.19 | relative viability (BEN; first compound 0.6325 µM): 1.11 | relative viability (BEN; first compound 6.325 µM): 1.12 | relative viability (BEN; first compound 20 µM): 1.07 | relative viability (NCI-H322M; first compound 0.2 µM): 0.851 | relative viability (NCI-H322M; first compound 0.6325 µM): 0.668 | relative viability (NCI-H322M; first compound 6.325 µM): 0.772 | relative viability (NCI-H322M; first compound 20 µM): 0.568 | relative viability (NCI-H1793; first compound 0.2 µM): 1.04 | relative viability (NCI-H1793; first compound 0.6325 µM): 0.887 | relative viability (NCI-H1793; first compound 6.325 µM): 0.843 | relative viability (NCI-H1793; first compound 20 µM): 0.539 | relative viability (NCI-H460; first compound 0.2 µM): 0.532 | relative viability (NCI-H460; first compound 0.6325 µM): 0.337 | relative viability (NCI-H460; first compound 2 µM): 0.384 | relative viability (NCI-H460; first compound 6.325 µM): 0.451 | relative viability (NCI-H460; first compound 20 µM): 0.162 | relative viability (PC-3 [JPC-3]; first compound 0.2 µM): 1.4 | relative viability (PC-3 [JPC-3]; first compound 0.6325 µM): 1.26 | relative viability (PC-3 [JPC-3]; first compound 2 µM): 1.11 | relative viability (PC-3 [JPC-3]; first compound 6.325 µM): 1.14 | relative viability (PC-3 [JPC-3]; first compound 20 µM): 0.981 | relative viability (HARA; first compound 0.2 µM): 0.69 | relative viability (HARA; first compound 0.6325 µM): 0.832 | relative viability (HARA; first compound 2 µM): 0.7 | relative viability (HARA; first compound 6.325 µM): 0.75 | relative viability (HARA; first compound 20 µM): 0.741 | relative viability (A-427; first compound 0.2 µM): 0.918 | relative viability (A-427; first compound 0.6325 µM): 0.607 | relative viability (A-427; first compound 2 µM): 0.746 | relative viability (A-427; first compound 6.325 µM): 0.765 | relative viability (A-427; first compound 20 µM): 0.687
